Assay results reported in ChEMBL document CHEMBL3351629, “Modulators of the nuclear receptor retinoic acid receptor-related orphan receptor-γ (RORγ or RORc)” (J Med Chem, 2014).

How the values were obtained:
[1] = target: T1, Nuclear receptor ROR-gamma (Homo sapiens, UniProt P51449); test: Binding affinity to RORgamma (unknown origin)
T1 sequence (P51449 whole entry): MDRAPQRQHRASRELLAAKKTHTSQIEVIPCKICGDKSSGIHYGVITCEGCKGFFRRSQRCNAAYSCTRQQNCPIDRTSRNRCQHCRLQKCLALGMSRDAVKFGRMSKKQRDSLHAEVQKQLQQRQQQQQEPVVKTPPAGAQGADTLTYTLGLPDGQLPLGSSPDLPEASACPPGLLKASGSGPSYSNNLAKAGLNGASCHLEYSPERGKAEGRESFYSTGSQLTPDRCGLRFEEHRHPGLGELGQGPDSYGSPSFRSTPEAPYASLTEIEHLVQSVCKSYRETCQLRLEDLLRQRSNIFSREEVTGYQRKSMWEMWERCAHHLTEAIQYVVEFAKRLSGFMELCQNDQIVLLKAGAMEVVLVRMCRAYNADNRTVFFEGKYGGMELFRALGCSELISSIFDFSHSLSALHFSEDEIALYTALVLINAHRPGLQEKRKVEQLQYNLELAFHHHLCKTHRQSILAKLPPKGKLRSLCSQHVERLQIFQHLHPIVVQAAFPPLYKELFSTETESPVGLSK

Mus musculus [2] = test: Decrease in serum IL-17a level in mouse at 30 mg/kg in presence of anti-CD3 antibody; assay type: functional
Mus musculus [3] = test: Decrease in serum IL-17a level in mouse at 100 mg/kg in presence of anti-CD3 antibody; assay type: functional
Mus musculus [4] = test: Decrease in serum IL-17a level in mouse at 300 mg/kg in presence of anti-CD3 antibody; assay type: functional
[5] = target: T2, Nuclear receptor ROR-gamma (Mus musculus) (UniProt P51450); test: Activity at RoRc in mouse CD4+ T cells assessed as inhibition of IL-17 production at 10 uM; assay type: cell-based; details: T-cell
T2 sequence (whole entry): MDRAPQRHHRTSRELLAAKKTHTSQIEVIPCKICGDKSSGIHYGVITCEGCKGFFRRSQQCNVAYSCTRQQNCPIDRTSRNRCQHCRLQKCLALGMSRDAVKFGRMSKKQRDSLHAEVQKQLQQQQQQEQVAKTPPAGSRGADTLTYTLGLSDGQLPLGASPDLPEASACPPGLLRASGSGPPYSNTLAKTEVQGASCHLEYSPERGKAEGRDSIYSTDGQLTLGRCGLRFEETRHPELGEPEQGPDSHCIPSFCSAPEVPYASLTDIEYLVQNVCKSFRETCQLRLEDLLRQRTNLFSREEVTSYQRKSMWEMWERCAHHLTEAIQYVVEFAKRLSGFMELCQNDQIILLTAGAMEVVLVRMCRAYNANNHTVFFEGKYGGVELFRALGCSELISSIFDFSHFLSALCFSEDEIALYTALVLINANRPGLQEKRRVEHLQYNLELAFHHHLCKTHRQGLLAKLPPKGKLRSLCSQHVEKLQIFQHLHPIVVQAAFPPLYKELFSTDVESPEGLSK

## C[C@H]1O[C@@H](O[C@H]2[C@@H](O)C[C@H](O[C@H]3[C@@H](O)C[C@H](O[C@H]4CC[C@@]5(C)[C@H](CC[C@@H]6[C@@H]5C[C@@H](O)[C@]5(C)[C@@H]([C@@H](CO)CCO)CC[C@]65O)C4)O[C@@H]3C)O[C@@H]2C)C[C@H](O)[C@@H]1O
[1]
  IC50: 12 µM

## CCn1c2ccccc2c2cc(NC(=O)CC(C)CC(=O)Nc3ccc(C#N)c(Cl)c3)ccc21 (stereo not given)
Mus musculus [2]
  inhibition in vivo at 30 mg/kg: 10%
Mus musculus [3]
  inhibition in vivo at 100 mg/kg: 25%
Mus musculus [4]
  inhibition in vivo at 300 mg/kg: 53%
[5]
  inhibition: 96%
